# Assay results as given in EP0900076B1, “TRANSDERMAL DEVICE” (priority 1996, dated 1997).
# Columns and labels:
# [1] = 10 mg morphine, end of the 24 hour delivery, mean; cited from earlier work
# [2] = clinical; details: female, human, in vivo, 100 mg
# [3] = Example 2: transdermal morphine after elective coronary surgery, amount absorbed from the drug cell; details: after 48 hours, of the initial 100 mg
# [4] = postoperative monitoring during the test period
# [5] = clinical; details: human, in vivo, 100 mg
SMILES,amount of drug in the reservoir was reduced [1] [per cent],concentration at 1 h [2] [nM],concentration at 32 h [2] [nM],concentration at 48 h [2] [nM],morphine dose in the drug cell found to be absorbed [3] [mg],oxygen saturation [4],concentration at 0 h [5] [nM],concentration at 1 h [5] [nM],concentration at 2 h [5] [nM],concentration at 3 h [5] [nM],concentration at 3.5 h [5] [nM],concentration at 4 h [5] [nM]
CN1CC[C@]23c4c5ccc(O)c4O[C@H]2[C@@H](O)C=C[C@H]3[C@H]1C5 [Morphine],75,8 ± 3.5,9.8 ± 3.8,8.5 ± 1.7,32 ± 6,remained normal,,,,,,
CN1CC[C@]23c4c5ccc(O)c4O[C@H]2[C@@H](O)C=C[C@H]3[C@H]1C5 [Morphine acetate],,,,,,,0,53,112,115,154,162
